# Experimental data from the RepoRT retention time repository (doi:10.1039/c4mb00346b).
# Test: HILIC, Merck SeQuant ZIC-pHILIC, 150 × 2.1 mm, 5 µm, 0.1 mL/min, estimated dead time 3.3 min; A: acetonitrile; B: water + 10 mM ammonium carbonate; gradient (min/%B) 0/20 30/80
# Conditions: stereoisomer not certain
row,Structure (SMILES),LC retention time [min]
1,CN(C)c1nc2c(ncn2C2OC(CO)C(O)C2O)c(=O)[nH]1 (stereo not drawn) [Dimethyl-guanosine],6
2,C[NH+](C)C(Cc1cnc[nH]1)C(=O)[O-] (stereo not drawn) [Dimethyl-histidine],9.7
3,C[N+]1(C)CCCC1C(=O)[O-] (stereo not drawn) [Dimethyl-proline (stachydrine)],7.9
4,O=C(O)C(COP(=O)(O)O)OP(=O)(O)O (stereo not drawn) [Diphospho-glycerate],15.6
5,Cc1cc2nc3c(=O)[nH]c(=O)nc-3n(CC(O)C(O)C(O)COP(=O)(O)OP(=O)(O)OCC3OC(n4cnc5c(N)ncnc54)C(O)C3O)c2cc1C (stereo not drawn) [FAD],9.4
6,"O=P(O)(O)OCC1OC(O)(COP(=O)(O)O)C(O)C1O (stereo not drawn) [Fructose-1,6-diphosphate]",15.5
7,O=P(O)(O)OCC1OC(O)(CO)C(O)C1O (stereo not drawn) [Fructose-6-phosphate],13.3
8,O=C(O)C=CC(=O)O [Fumarate],13.1
9,Nc1nc2c(ncn2C2OC(COP(=O)(O)OP(=O)(O)OC3OC(CO)C(O)C(O)C3O)C(O)C2O)c(=O)[nH]1 (stereo not drawn) [GDP-glucose],15.5
10,Nc1nc2c(ncn2C2OC(COP(=O)(O)OP(=O)(O)O)C(O)C2O)c(=O)[nH]1 (stereo not drawn) [GDP],15.5
11,Nc1nc2c(ncn2C2OC(COP(=O)(O)O)C(O)C2O)c(=O)[nH]1 (stereo not drawn) [GMP],14.1
12,Nc1nc2c(ncn2C2OC(COP(=O)(O)OP(=O)(O)OP(=O)(O)O)C(O)C2O)c(=O)[nH]1 (stereo not drawn) [GTP],16.4
13,O=C(O)C(O)C(O)C(O)C(O)CO (stereo not drawn) [Gluconate],11.4
14,NC1C(O)OC(CO)C(O)C1O (stereo not drawn) [Glucosamine],11.6
15,O=P(O)(O)OCC1OC(O)C(O)C(O)C1O (stereo not drawn) [Glucose-6-phosphate],14.2
16,OCC1OC(O)C(O)C(O)C1O (stereo not drawn) [Glucose],12
17,NC(CCC(=O)NC(CSSCC(NC(=O)CCC(N)C(=O)O)C(=O)NCC(=O)O)C(=O)NCC(=O)O)C(=O)O (stereo not drawn) [Glutathione disulfide (GSSG)],15
18,O=CC(O)COP(=O)(O)O (stereo not drawn) [Glyceraldehyde-3-phosphate],13.2
19,O=P(O)(O)OC(CO)CO [Glycerol-2-phosphate],12.2
20,C[N+](C)(C)CCOP(=O)([O-])OCC(O)CO (stereo not drawn) [Glycerophosphocholine],12.1
21,Nc1nc2c(ncn2C2OC(CO)C(O)C2O)c(=O)[nH]1 (stereo not drawn) [Guanosine],9.8

row,Structure (SMILES),LC retention time [min]
1,CC(O)(CC(=O)O)CC(=O)SCCNC(=O)CCNC(=O)C(O)C(C)(C)COP(=O)(O)OP(=O)(O)OCC1OC(n2cnc3c(N)ncnc32)C(O)C1OP(=O)(O)O (stereo not drawn) [HMG-CoA],13.2
2,CCCCCC(=O)OC(CC(=O)[O-])C[N+](C)(C)C (stereo not drawn) [Hexanoyl-carnitine],4.8
3,O=C(O)CNC(=O)c1ccccc1 [Hippurate],4.4
4,NCCc1cnc[nH]1 [Histamine],24.8
5,NC(CO)Cc1cnc[nH]1 (stereo not drawn) [Histidinol],16.3
6,O=c1[nH]cnc2nc[nH]c12 [Hypoxanthine],7.6
7,O=S(=O)(O)Oc1c[nH]c2ccccc12 [Indoxyl-sulfate],4.9
8,O=c1[nH]cnc2c1ncn2C1OC(CO)C(O)C1O (stereo not drawn) [Inosine],8.2
9,CC(C)CC(=O)OC(CC(=O)[O-])C[N+](C)(C)C (stereo not drawn) [Isovaleryl-carnitine],5.4
10,CC(=O)N[C@H]1C(O)O[C@H](CO)[C@@H](O)[C@@H]1O (stereo partly drawn) [N-Acetyl-D-glucosamine],9.3
11,NC(=O)c1ccc[n+](C2OC(COP(=O)(O)OP(=O)(O)OCC3OC(n4cnc5c(N)ncnc54)C(O)C3O)C(O)C2O)c1 (stereo not drawn) [NAD+],11.9
12,NC(=O)C1=CN(C2OC(COP(=O)(O)OP(=O)(O)OCC3OC(n4cnc5c(N)ncnc54)C(O)C3O)C(O)C2O)C=CC1 (stereo not drawn) [NADH],11.1
13,NC(=O)c1ccc[n+](C2OC(COP(=O)(O)OP(=O)(O)OCC3OC(n4cnc5c(N)ncnc54)C(OP(=O)(O)O)C3O)C(O)C2O)c1 (stereo not drawn) [NADP+],14.4
14,NC(=O)C1=CN(C2OC(COP(=O)(O)OP(=O)(O)OCC3OC(n4cnc5c(N)ncnc54)C(OP(=O)(O)O)C3O)C(O)C2O)C=CC1 (stereo not drawn) [NADPH],14.8
15,NC(=O)c1cccnc1 [Nicotinamide],4.7
16,CCCCCCCC(=O)OC(CC(=O)[O-])C[N+](C)(C)C (stereo not drawn) [Octanoyl-carnitine],4.1
17,O=P(O)(O)OCC1OC(OP(=O)(O)OP(=O)(O)O)C(O)C1O [PRPP (5-Phospho-alpha-D-ribose 1-diphosphate)],16.5
18,CN(CC(=O)O)C(N)=NP(=O)(O)O [Phosphocreatine],12.7
19,C=C(OP(=O)(O)O)C(=O)[O-] [Phosphoenolpyruvate],15.1
20,O=C(O)C1CCCN1 (stereo not drawn) [Proline],10.2

# Second part, the compound after the results:
row,LC retention time [min],Structure (SMILES)
1,19.2,CN(C)CCCCC(N)C(=O)O (stereo not drawn) [Dimethyl-lysine]
2,12.1,C[N+](C)(C)C(Cc1cnc([S-])[nH]1)C(=O)O (stereo not drawn) [Ergothioneine]
3,7.1,COC(=O)C(N)CCC(=O)O (stereo not drawn) [Glutamate methyl ester]
4,12.1,NC(CCC(=O)O)C(=O)O (stereo not drawn) [Glutamate]
5,12.2,NC(=O)CCC(N)C(=O)O (stereo not drawn) [Glutamine]
6,12,O=C(O)CCCC(=O)O [Glutarate]
7,10.1,O=C(O)C(O)CO (stereo not drawn) [Glyceric acid]
8,12,NC(Cc1cnc[nH]1)C(=O)O (stereo not drawn) [Histidine]
9,8.6,CCC(C)C(N)C(=O)O (stereo not drawn) [Isoleucine]
10,8,Nc1ccccc1C(=O)CC(N)C(=O)O (stereo not drawn) [Kynurenine]
11,7.6,CC(C)CC(N)C(=O)O (stereo not drawn) [Leucine]
12,23.3,NCCCCC(N)C(=O)O (stereo not drawn) [Lysine]
13,13.3,O=C(O)CC(O)C(=O)O (stereo not drawn) [Malate]
14,8.7,CSCCC(N)C(=O)O (stereo not drawn) [Methionine]
15,10.2,Cn1cnc(CC(N)C(=O)O)c1 (stereo not drawn) [Methyl-histidine]
16,22.1,CNCCCCC(N)C(=O)O (stereo not drawn) [Methyl-lysine]
17,12.7,CC(=O)NC(CCCC[NH3+])C(=O)[O-] (stereo not drawn) [N2-Acetyl-lysine]
18,10.5,CC(=O)NCCCCC([NH3+])C(=O)[O-] (stereo not drawn) [N6-Acetyl-lysine]
19,4.4,CCC(C)C(NC(C)=O)C(=O)O (stereo not drawn) [N-Acetyl-(iso)leucine]
20,12.3,CC(=O)NC(CCC[NH+]=C(N)N)C(=O)[O-] (stereo not drawn) [N-Acetyl-arginine]
21,12.5,CC(=O)NC(CC(=O)O)C(=O)O (stereo not drawn) [N-Acetyl-aspartate]
22,11.6,CC(=O)NC(CCC(=O)O)C(=O)O (stereo not drawn) [N-Acetyl-glutamate]
23,11.1,CC(=O)NC(CCCN)C(=O)O (stereo not drawn) [N-Acetyl-ornithine]
24,11.2,CCC(NC(=O)CCC(N)C(=O)O)C(=O)NCC(=O)O (stereo not drawn) [Ophthalmic acid]
25,20.8,NCCCC(N)C(=O)O (stereo not drawn) [Ornithine]
26,6.1,CC(C)(CO)C(O)C(=O)NCCC(=O)O (stereo not drawn) [Pantothenate]
27,7.3,NC(Cc1ccccc1)C(=O)O (stereo not drawn) [Phenylalanine]
